Measured values as given in patent publication US20230372288A1, “Application of Aristolochic Acid IVa in Preparation of Antihistamine or Drug for Treating Pneumonia” (priority 2022, published 2023).

What was measured:
ICR mice = assay: Toxicity test, single gavage, death within 14 days and renal pathology; format: in vivo; details: 40 mg/kg once by gavage; for Death rate / Number of dead animals: 10 animals, within 14 days; for Renal pathological examination: survived animals after 14 days
Description: SPF-grade ICR mice are used, 18-22 g, with half male and half female. The animals are sourced from Beijing Vital River Laboratory Animal Technology Co., Ltd. After 1 day of adaptive feeding, the test substance is administered.
The mice are randomly divided into 4 groups: a control group (physiological saline is administered once by gavage) (1); an AA-I group (40 mg/kg of AA-I is administered once by the gavage) (2); an AA-II group (40 mg/kg of AA-II is administered once by the gavage) (3); and an AA-Iva group (40 mg/kg of AA-IVa is administered once by the gavage) (4).
Before the animals are administered by the gavage, it is fasted for 12 h without water deprivation. After being administered by the gavage, the animal death conditions within 14 days are recorded after the gavage administration. Survived animals are dissected, and kidneys are taken for the pathological examination.

[1] = system: histamine-induced increase in mouse vascular permeability; assay: Histamine-induced increase in auricular vascular permeability, EB exudation test; format: in vivo, ICR mice; details: for Ear blue staining compared with histamine model group: observed within 30 min after histamine; for Amount of EB exudation: histamine 5 mg/kg tail vein on 4th day, both ears, n = 10, mean ± SD; for EB exudation reduction rate: histamine 5 mg/kg, vs histamine group
Description: ICR mice are divided into 6 groups, including a negative control group (control): physiological saline is administered by gavage for 3 days, and on the 4th day, the physiological saline is administered by tail vein injection; a histamine model group (histamine): the physiological saline is administered by the gavage for 3 days, and 5 mg/kg of the histamine is administered by the tail vein injection on the 4th day; an AA-IVa low-dose treatment group (histamine+AA-IVa/L): 5 mg/kg of AA-IVa is administered by the gavage for 3 days, and 5 mg/kg of the histamine is administered by the tail vein injection on the 4th day; and an AA-IVa high-dose treatment group (histamine+AA-IVa/H): 10 mg/kg of AA-IVa is administered by the gavage for 3 days, and 5 mg/kg of the histamine is administered by the tail vein injection on the 4th day.
AA-Iva: 0.5 wt % CMC-Na is used for preparation, and the concentration is 0.5 mg/ml and 0.25 mg/ml respectively. Histamine: 0.5 mg/ml of histamine solution is prepared with the physiological saline.
4.3 Modeling Method • (1) Principle: the histamine may cause an increase in permeability of capillary and venule walls, and plasma leaks into tissues, leading to local tissue edema. EB is a commonly used indicator for detecting the vascular permeability. After intravenous injection of mixed solution of histamine and EB into the mice, the increase in the vascular permeability caused by the histamine may be observed in a mouse auricle (the auricle is stained blue). • (2) Method for establishing model of increased auricular vascular permeability induced by histamine: after the histamine (0.5 mg/ml) is mixed with 0.8% EB solution at a ratio of 1:1 (volume), the tail vein injection is performed at 20 ml/kg of a volume according to the weight of each mouse. The auricular blue staining condition of the mouse is observed within 30 min after the histamine is administered, and a picture of the auricular blue staining is taken. • (3) Auricular vascular permeability test (EB exudation test): after the above auricular blue staining is observed and photographed, both ears are cut, and cut into pieces. After being soaked in 2 ml of formamide at a room temperature for 48 h, it is filtered with a 200-mesh stainless steel sieve. A filtrate is taken, and the absorbance (A) is measured at 610 nm. According to an EB standard curve, the amount (μg) of EB dye exudation is calculated.
EB exudation reduction rate (%)=(average value of EB exudation in histamine group−average value of EB exudation in administration group)/average value of EB exudation in histamine group×100%.
Statistical analysis is performed by using SPSS 20.0 software. The variance analysis is performed on the amount of EB exudation from the auricle tissue by using an ANOVA program. Data is expressed as mean±standard deviation (x±S), the histamine model group is compared with the control group, and each administration group is compared with the histamine model group, P<0.05 is considered as a significant difference.
ICR mice are divided into 4 groups, including a negative control group (control) (1): physiological saline is administered by gavage for 3 days, and on the 4th day, the physiological saline is administered by tail vein injection; a histamine model group (histamine) (2): the physiological saline is administered by the gavage for 3 days, and on the 4th day, 5 mg/kg of the histamine is administered by the tail vein injection; an AA-I treatment group (histamine+AA-I) (3): 10 mg/kg of AA-I is administered by the gavage for 3 days, and on the 4th day, 5 mg/kg of the histamine is administered by the tail vein injection; and an AA-II treatment group (histamine+AA-II) (4): 10 mg/kg of AA-II is administered by the gavage for 3 days, and on the 4th day, 5 mg/kg of the histamine is administered by the tail vein injection.
Preparation of AA-I and AA-II: 0.5 wt % CMC-Na is used to prepare AA-I and AA-II into 0.5 mg/ml respectively.

[2] = system: histamine-induced pneumonia (lung tissue inflammatory exudation); assay: Histamine-induced pneumonia, pathological examination of lung tissue; format: in vivo, ICR mice; details: histamine 5 mg/kg, HE pathology
From the text: 1. Experimental Method • (1) Model establishment, animal grouping and administration are the same as Embodiment 1. • (2) Pathological examination of lung tissue: after the mouse is euthanized due to vertebral detachment, it is dissected, and the lung tissue is taken out. The lung tissue is fixed with 10% neutral formalin for standby. After being fully fixed with formaldehyde, the submitted tissue is dehydrated step by step with ethanol, transparent with xylene, embedded with paraffin, and prepared conventionally into 3 μm of a paraffin section. HE, Masson, and PAS staining are used respectively, and the tissue inflammation exudation conditions are examined under an optical microscope (DP71 type, OLYMPUS, magnified by 400 times).
1. Experimental Method • (1) Model establishment, animal grouping and administration are the same as Contrast example 1. • (2) Pathological examination of lung tissue: same as Embodiment 2.

[3] = drug 10 mg/kg by gavage for 3 days
[4] = drug 5 mg/kg by gavage for 3 days

Row | Compound | Death rate (ICR mice) [%] | Number of dead animals (ICR mice) | Renal pathological examination (ICR mice) | Amount of EB exudation compared to histamine model group (in words) ([1]; 10 mg/kg by gavage for 3 days) | Ear blue staining compared with histamine model group ([1]; 10 mg/kg by gavage for 3 days) | Amount of EB exudation [1, 3] [µg] | EB exudation reduction rate [1, 3] [%] | Thickening of alveolar septa and exudation of inflammatory cells in lung tissue compared to model group ([2]; 10 mg/kg by gavage for 3 days) | Amount of EB exudation compared to histamine model group (in words) ([1]; different doses (5 and 10 mg/kg by gavage for 3 days), P<0.001) | Ear blue staining compared with histamine model group ([1]; different doses (5 and 10 mg/kg by gavage for 3 days)) | Amount of EB exudation [1, 4] [µg] | EB exudation reduction rate [1, 4] [%] | Thickening of alveolar septa and exudation of inflammatory cells in lung tissue compared to model group ([2]; 5 mg/kg by gavage for 3 days)
1 | COc1cccc2c1cc([N+](=O)[O-])c1c(C(=O)O)cc3c(c12)OCO3 [AA-I, Aristolochic Acid I] | 70 | 7 | diffuse tubular necrosis | no significant difference | no significant difference | 1.01 ± 0.28 | 14.4 | no significant difference compared to the histamine model group |  |  |  |  | 
2 | O=C(O)c1cc2c(c3c1c([N+](=O)[O-])cc1ccccc13)OCO2 [AA-II, Aristolochic Acid II] | 10 | 1 | patchy tubular necrosis and tubular swelling | no significant difference | no significant difference | 1.09 ± 0.34 | 7.6 | no significant difference compared to the histamine model group |  |  |  |  | 
3 | COc1cc(O)cc2c1cc([N+](=O)[O-])c1c(C(=O)O)cc3c(c12)OCO3 [AA-IVa, aristolochic acid IVa] |  |  | no toxic damage |  |  | 0.82 ± 0.25 | 44.2 | significant reduction compared to the model group | significantly decreased | significantly reduced | 0.93 ± 0.20 | 36.7 | significant reduction compared to the model group
